Experiments:
[1] = system: thrombospondin-1 (TSP-1) in HUVEC; assay: TSP-1 protein expression in HUVEC by Western blot; assay type: cell-based, human; details: prolonged exposure and higher drug concentrations of 5-FU, FIG. 3
Method: Thrombospondin (TSP) is a macromolecule with various functions, and among its isoforms, TSP-1 acts as an angiogenesis inhibitor. The following experiment was conducted to examine changes in TSP-1 expression in response to different concentrations of 5-FU.
Western blot analysis was conducted to confirm the expression of TSP-1 protein in the HUVEC (human umbilical vein endothelial cell) cell line.
HUVECs cultured in petri dishes were lysed using a buffer containing 50 mM Tris (pH 8.0), 150 mM NaCl, 1% Nonidet P-40, 0.5% sodium deoxycholate (SDC), 0.1% sodium dodecyl sulfate (SDS), and 1× protease inhibitor cocktail. The lysates were incubated on ice for 30 minutes, followed by centrifugation at 14,000 g for 10 minutes to collect the supernatant.
Protein quantification was performed using a bicinchoninic acid (BCA) protein assay kit (Pierce Chemical, Rockford, IL, USA). A total of 30 μg of protein was subjected to electrophoresis on a 10% SDS-polyacrylamide gel and subsequently transferred onto a nitrocellulose membrane. The membrane was blocked with blocking milk for 1 hour, then incubated with the same TSP-1 antibody used for immunostaining at room temperature for 1 hour. After three washes with Tris buffer containing 0.1% Tween 20 at 15-minute intervals, the membrane was incubated with a secondary antibody specific to the primary antibody at room temperature for 1 hour. […]

[2] = system: human gastric cancer cells; assay: Human gastric cancer cell xenograft in nude mice, alkaline 5-FU injected adjacent to tumor; assay type: in vivo, nude mice (Crj: BALB/c-nu/nu), human tumor cells; details: 5 mg 5-FU pH 8.4, three times at one-week intervals, 4 weeks, P<0.05, FIG. 8
Method: The animals used in the experiment were six male nude mice (Crj: BALB/c-nu/nu mice, male) aged five weeks and weighing approximately 30 grams, purchased from Orient. The mice were subjected to a one-week acclimation period in the laboratory before use. Each nude mouse was subcutaneously xenografted with 5×10^6 human gastric cancer cells suspended in 100 μL of PBS on the dorsal subcutaneous layer. The tumor size was periodically measured, and when it reached a diameter of 1 cm, the drug administration experiment was conducted.
The experimental animals were divided into two groups. One group served as the control group, receiving only physiological saline, while the other group was administered 5 mg of 5-FU at pH 8.4. The drug was injected 0.2 cc adjacent to the tumor three times at one-week intervals. After one month, the major and minor axes of the tumors growing on the dorsal epidermis were measured.

HUVECs [3] = assay: LDH release assay in HUVECs; assay type: cell-based, human; details: 1 mM, 5 mM, and 10 mM 5-FU, time-dependent, P<0.05, FIG. 4
Method: It has been generally reported that an increase in the expression of thrombospondin-1 (TSP-1) and thrombospondin-2 (TSP-2) induces apoptosis in endothelial cells. To investigate whether the administration of 5-fluorouracil (5-FU) enhances apoptosis in endothelial cells, an LDH release assay was conducted in human umbilical vein endothelial cells (HUVECs). Cytotoxicity was assessed based on the amount of lactate dehydrogenase (LDH) released due to cell membrane damage. The released LDH was quantified using an LDH assay kit (EZ-LDH1000; DoGenBio, Seoul, Korea) according to the manufacturer's protocol.
HUVECs (5×10^4 cells/well) were seeded in a 96-well polystyrene plate and incubated at 37 °C for 24 hours. LDH substrate was added to each well, followed by an additional incubation at 37 °C for 10 minutes. The plate was centrifuged at 600 g for 5 minutes. A 10-μL aliquot of the supernatant was transferred from the culture plate wells to an analysis plate. Subsequently, 100 μL of LDH reaction mixture reagent was added to the supernatant in each well of the analysis plate. After a 30-minute reaction, absorbance was measured at 450 nm using a microplate reader (Model 680; Bio-Rad). The cytotoxicity of 5-FU on HUVECs was determined based on the amount of LDH released.

HUVEC = assay: 5-FU cytotoxicity on HUVEC according to D-glucose or L-glucose concentration (MTS); assay type: cell-based, human
Method: An MTS cell proliferation assay was conducted to evaluate the cytotoxic effect of 5-FU on HUVEC according to D-glucose concentration under different pH conditions.
The cells were then incubated for an additional 24 hours in DMEM medium containing various concentrations of glucose.
To assess the cytotoxic effect of L-glucose on HUVEC, the experiment was conducted in the same manner as described in Example 2, Section 3.
To assess the cytotoxic effect of D-glucose or L-glucose on HUVEC, the experiment was conducted in the same manner as described in Example 2, Section 3.

CD31 = CD31 immunohistochemical staining of gastric tumor tissue after local injection of 5-FU in nude mice; assay type: in vivo
Method: To observe changes in vascular tissue within gastric tumor masses after local injection of 5-FU, immunohistochemical staining for CD31 and VEGF was performed.
For the control group, gastric tumor tissue was implanted in the dorsal region of nude mice, and when the tumor reached a size of 1 cm×1 cm, it was excised and used. For the 5-FU injection group, 5 mg of 5-FU was injected at the base of the tumor when the implanted tumor reached a size of 1 cm×1 cm. […] The immunohistochemical staining method was as follows.
To reduce endogenous peroxidase activity present in blood cells within the tissue, the slides were treated at room temperature with 3% H2O2 in methanol for 15 minutes. […] The slides were washed twice with TBST (Tris-buffered saline with 0.1% Tween® 20 Detergent) for 3 minutes each, followed by incubation at room temperature for 15 minutes with Detection Kit Reagent 1 (HRP Polymer-anti-mouse/rabbit IgG). […] For counterstaining, Harris hematoxylin was applied.
For result analysis, the proportion of the area stained for CD31-positive blood vessels and VEGF-positive cancer cells relative to the total tissue area was calculated, and a comparison was made between the control group and the 5-FU locally injected group.

HUVECs [4] = assay: MTS cell proliferation assay, 5-FU cytotoxicity in HUVECs at different pH; assay type: cell-based, human; details: FIG. 5
Method: To evaluate the cytotoxic effect of 5-fluorouracil (5-FU) in human umbilical vein endothelial cells (HUVECs) under different pH conditions, an MTS cell proliferation assay was performed.
Subsequently, the cells were cultured for an additional 24 hours in Dulbecco's Modified Eagle's Medium (DMEM) containing 5-FU at different pH conditions (pH 6.4, 7.4, 8.4, and 9.0). Following the incubation, the cells were washed twice with phosphate-buffered saline (PBS), after which 100 μL of fresh DMEM growth medium was added, followed by an additional 48-hour incubation. […] After an additional 2-hour incubation, the absorbance was measured at 490 nm using a microplate reader (Model 680, BIO-RAD; Spark, TECAN, CA, USA).

O=c1[nH]cc(F)c(=O)[nH]1 [5-FU, 5-fluorouracil]
TSP-1 expression levels [1]: increased expression levels
tumor size compared to before injection [2]: significantly reduced
amount of released LDH (HUVECs [3]): significantly increased
cell viability upon addition of 5-FU (HUVEC; 5-FU added to L-glucose 5 mM and 25 mM, FIG. 14): further decreased cell viability
cell viability upon addition of 5-FU (HUVEC; 5-FU under different pH conditions added to D-glucose 5 mM and 25 mM, FIG. 13): further decrease in cell viability
distribution of necrotic tissue in tumor mass (CD31; 5 mg 5-FU, one week, compared to control group, FIG. 6): the distribution of necrotic tissue increased
Immuno-positive area (%) (CD31; CD31, proportion of total tissue area, 5 mg 5-FU, one week after injection, control group 0.87): 0.54%
stained area of CD31 and VEGF (CD31; CD31 and VEGF, compared to control group, Table 1): appeared smaller
vascular distribution within the tumor mass (CD31; compared to control group): reduced
stained area ratio of CD31 (CD31; compared to control group, FIG. 6): lower
cytotoxicity under alkaline conditions compared to neutral or acidic 5-FU (HUVECs [4]): significantly greater toxicity
cytotoxic effect according to pH (HUVECs [4]; pH 6.4, 7.4, 8.4, and 9.0, 24 hours): increased as the alkalinity of the drug became stronger

Source: US20260345649A1, “PHARMACEUTICAL COMPOSITION FOR DESTRUCTION OF TUMOR BLOOD VESSELS” (SAMSUNG MEDICAL FOUNDATION, priority 2022, published 2026)
